{"source": "patent US20050232952A1", "about": "“Self emulsifying drug delivery systems for poorly soluble drugs” (priority 2002, published 2005)", "origin": "cited, not measured here", "conditions": "humans", "data": [{"smiles": "CC(=O)O[C@H]1C(=O)[C@@]2(C)[C@H]([C@H](OC(=O)c3ccccc3)[C@]3(O)C[C@H](OC(=O)[C@H](O)[C@@H](NC(=O)c4ccccc4)c4ccccc4)C(C)=C1C3(C)C)[C@]1(OC(C)=O)CO[C@@H]1C[C@@H]2O", "note": "[paclitaxel, Paclitaxel]", "values": [{"measurement": "systemic bioavailability after oral paclitaxel administration", "value": "less than 6%"}]}]}
